According to PubChem BioAssay AID1963862 (Molecular Pharmacology Branch, DTP, NCI, 2024):

Test system: KRAS patient-derived spheroids with HUVEC/MSC, viability
Assay: Anticancer human tumor 941728-121-R-J1-PDC patient-derived lung adenocarcinoma cell line growth inhibition [KRAS2]
Settings: for IC50: curve of first compound; for viability, T/C: stronger effect = lower value
Summary of the method: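 Combination screen of spheroid viability in tumor-cell co-cultures with endothelial (HUVEC) and mesenchymal stem cell stroma. Each agent was tested in half-log dilutions, topping at clinical Cmax or at 10 microM without a known Cmax.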

[1] = second compound 0.0316 µM, first compound 0.000316 µM
[2] = second compound 0.0316 µM, first compound 0.001 µM
[3] = second compound 0.0316 µM, first compound 0.00316 µM
[4] = second compound 0.0316 µM, first compound 0.01 µM
[5] = second compound 0.0316 µM, first compound 0.0316 µM
[6] = second compound 0.1 µM, first compound 0.000316 µM
[7] = second compound 0.1 µM, first compound 0.001 µM
[8] = second compound 0.1 µM, first compound 0.00316 µM
[9] = second compound 0.1 µM, first compound 0.01 µM
[10] = second compound 0.1 µM, first compound 0.0316 µM
[11] = second compound 0.316 µM, first compound 0.000316 µM
[12] = second compound 0.316 µM, first compound 0.001 µM
[13] = second compound 0.316 µM, first compound 0.00316 µM
[14] = second compound 0.316 µM, first compound 0.01 µM
[15] = second compound 0.316 µM, first compound 0.0316 µM
[16] = second compound 1 µM, first compound 0.000316 µM
[17] = second compound 1 µM, first compound 0.001 µM
[18] = second compound 1 µM, first compound 0.00316 µM
[19] = second compound 1 µM, first compound 0.01 µM
[20] = second compound 1 µM, first compound 0.0316 µM
[21] = second compound 3.16 µM, first compound 0.000316 µM
[22] = second compound 3.16 µM, first compound 0.001 µM
[23] = second compound 3.16 µM, first compound 0.00316 µM
[24] = second compound 3.16 µM, first compound 0.01 µM
[25] = second compound 3.16 µM, first compound 0.0316 µM
[26] = second compound 0.0316 µM, first compound 0.1 µM
[27] = second compound 0.1 µM, first compound 0.1 µM
[28] = second compound 0.316 µM, first compound 0.1 µM
[29] = second compound 1 µM, first compound 0.1 µM
[30] = second compound 3.16 µM, first compound 0.1 µM
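Note: spheroids exposed to agents for seven days before readout.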

| Compound | IC50 (second compound 0.0316 µM) [nM] | IC50 (second compound 0.1 µM) [nM] | IC50 (second compound 0.316 µM) [nM] | IC50 (second compound 1 µM) [nM] | IC50 (second compound 3.16 µM) [nM] | viability, T/C [1] [%] | viability, T/C [2] [%] | viability, T/C [3] [%] | viability, T/C [4] [%] | viability, T/C [5] [%] | viability, T/C [6] [%] | viability, T/C [7] [%] | viability, T/C [9] [%] | viability, T/C [10] [%] | viability, T/C [14] [%] | viability, T/C [15] [%] | viability, T/C [19] [%] | viability, T/C [20] [%] | viability, T/C [24] [%] | viability, T/C [25] [%] | further results |
| --- | --- | --- | --- | --- | --- | --- | --- | --- | --- | --- | --- | --- | --- | --- | --- | --- | --- | --- | --- | --- | --- |
| CC(=O)Nc1cccc(-n2c(=O)n(C3CC3)c(=O)c3c(Nc4ccc(I)cc4F)n(C)c(=O)c(C)c32)c1 + C=CC(=O)N1CCN(c2nc(OCC3CCCN3C)nc3c2CCN(c2cccc4cccc(C)c24)C3)CC1CC#N | < 0.1 | < 0.1 | < 0.1 | < 0.1 | < 0.1 | 26.4 | 25.9 | 25.4 | 24.2 | 25.1 | 26.7 | 25.4 | 21.2 | 22 | 22.1 | 22.9 | 20 | 22.6 | 1.14 | 0.53 | viability, T/C (second compound 0.0316 µM, first compound 0.0001 µM): 31%; viability, T/C (second compound 0.1 µM, first compound 0.0001 µM): 30.9%; viability, T/C [8]: 25.5%; viability, T/C (second compound 0.316 µM, first compound 0.0001 µM): 29.2%; viability, T/C [11]: 27.2%; viability, T/C [12]: 23.4%; viability, T/C [13]: 24.1%; viability, T/C (second compound 1 µM, first compound 0.0001 µM): 24%; viability, T/C [16]: 22.9%; viability, T/C [17]: 19%; viability, T/C [18]: 21.3%; viability, T/C (second compound 3.16 µM, first compound 0.0001 µM): 0.84%; viability, T/C [21]: 0.35%; viability, T/C [22]: 1.24%; viability, T/C [23]: 0.89% |
| CC(=O)OC12COC1CC(O)C1(C)C(=O)C(O)C3=C(C)C(OC(=O)C(O)C(NC(=O)OC(C)(C)C)c4ccccc4)CC(O)(C(OC(=O)c4ccccc4)C21)C3(C)C (stereo not given) + C=CC(=O)N1CCN(c2nc(OCC3CCCN3C)nc3c2CCN(c2cccc4cccc(C)c24)C3)CC1CC#N | < 10 | < 10 | < 10 | < 10 | < 10 | – | – | – | 28.2 | 28.4 | – | – | 24.6 | 22.2 | 22.8 | 21.6 | 21.2 | 23.4 | 27.9 | 33.1 | viability, T/C [26]: 26.8%; viability, T/C (second compound 0.0316 µM, first compound 0.316 µM): 25.7%; viability, T/C (second compound 0.0316 µM, first compound 1 µM): 29.1%; viability, T/C (second compound 0.0316 µM, first compound 3.16 µM): 26.7%; viability, T/C [27]: 21.9%; viability, T/C (second compound 0.1 µM, first compound 0.316 µM): 22.9%; viability, T/C (second compound 0.1 µM, first compound 1 µM): 24.6%; viability, T/C (second compound 0.1 µM, first compound 3.16 µM): 26.2%; viability, T/C [28]: 21.1%; viability, T/C (second compound 0.316 µM, first compound 0.316 µM): 22.1%; viability, T/C (second compound 0.316 µM, first compound 1 µM): 21.1%; viability, T/C (second compound 0.316 µM, first compound 3.16 µM): 24.4%; viability, T/C [29]: 21.1%; viability, T/C (second compound 1 µM, first compound 0.316 µM): 19.8%; viability, T/C (second compound 1 µM, first compound 1 µM): 21.7%; viability, T/C (second compound 1 µM, first compound 3.16 µM): 20.8%; viability, T/C [30]: 26.4%; viability, T/C (second compound 3.16 µM, first compound 0.316 µM): 27.3%; viability, T/C (second compound 3.16 µM, first compound 1 µM): 26.9%; viability, T/C (second compound 3.16 µM, first compound 3.16 µM): 27.9% |
| CN(C)C/C=C/C(=O)Nc1cc2c(Nc3ccc(F)c(Cl)c3)ncnc2cc1O[C@H]1CCOC1 + C=CC(=O)N1CCN(c2nc(OCC3CCCN3C)nc3c2CCN(c2cccc4cccc(C)c24)C3)CC1CC#N | < 0.316 | < 0.316 | < 0.316 | < 0.316 | < 0.316 | 22.7 | 22.4 | 22.2 | 23.3 | 20.5 | 21.3 | 19.3 | 20.1 | 20.4 | 21.5 | 20.5 | 19.1 | 19.2 | 0.19 | 0.45 | viability, T/C [26]: 20.6%; viability, T/C [8]: 18.8%; viability, T/C [27]: 18.6%; viability, T/C [11]: 21.1%; viability, T/C [12]: 20.9%; viability, T/C [13]: 21.4%; viability, T/C [28]: 18.3%; viability, T/C [16]: 21.1%; viability, T/C [17]: 21.2%; viability, T/C [18]: 20.9%; viability, T/C [29]: 21.2%; viability, T/C [21]: 1.16%; viability, T/C [22]: 0.2%; viability, T/C [23]: 0.46%; viability, T/C [30]: 1.8% |
